From USRE41315E1, “Modulators of dopamine neurotransmission” (NSAB, Filial af NeuroSearch Sweden AB, priority 1999, dated 2010) come the findings set out here.

As usually defined, the melting point is the temperature of the solid-liquid transition.

In data set [1] the test system is 3,4-dihydroxyphenyl-acetic acid (DOPAC) in the striatum. The data set can be described thus: In vivo test: neurochemistry, 3,4-dihydroxyphenyl-acetic acid in the striatum. Conditions: rat, n=4. An excerpt: After the behavioral activity sessions the rats were decapitated and their brains rapidly taken out and put on an ice-cold petri-dish. The limbic forebrain, the striatum, the frontal cortex and the remaining hemispheral parts of each rat were dissected and frozen. Each brain part was subsequently analyzed with respect to its content of monoamines and their metabolites. The monoaminergic indices analyzed were dopamine (DA), 3,4-dihydroxyphenyl-acetic acid (DOPAC), homovanillic acid (HVA), 3-methoxytyramine (3-MT), serotonin (5-HT), 5-hydroxyindole acetic acid (5-HIAA), and noradrenaline (NA). All monoaminergic indices in the dissected tissue were analyzed by means of HPLC with electrochemical detection as described by Svensson K, et al., 1986, Naunyn-Schmiedeberg's Arch Pharmacol 334: 234-245 and references cited therein.

Data set [2] in a line: In vivo test: pharmacokinetics in the rat. As to the method:
To determine oral availability (F); and plasma half life (t1/2) of test compounds of this invention experiments performed in the rat were undertaken. On day one rats were implanted with one catheter in the jugular vein and one catheter in the carotid artery under ketamine anesthesia. On day three test compound is injected the either orally or in the jugular vein catheter. Blood samples are collected during 8 hours from the arterial catheter. The blood samples were heparinized and centrifuged. Plasma is collected from the centrifuged samples and frozen. The levels of test compound were subsequently determined in each sample by means of gas chromatography mass spectrometry (Hewlett-Packard 5972MSD). […]

The test system of data set [3] is spontaneous behavior (locomotor activity). The data set can be described thus: In vivo test: behavior, spontaneous locomotor activity in non-habituated/nonpretreated rats. As to conditions: rat; for locomotor activity in nonpretreated rats: 100 μmol/kg s.c., 30-60 min.
The subject of data set [4] is d-amphetamine induced hyperactivity. In words: In vivo test: behavior, d-amphetamine induced hyperactivity. Conditions: rat, d-amphetamine pretreated, n=4.
Data set [5] relates to locomotor activity of habituated rats. In words: In vivo test: behavior, locomotor activity of habituated rats.

Where a name gives a salt, the structure may show the parent alone.

Consider `CCCN1CCN(c2ccc(Cl)c(C(F)(F)F)c2)CC1` (as salt: HCl), for which the melting point turned out to be 268 °C.
Turning to `CCCN1CCN(c2cc(C(F)(F)F)ccc2Cl)CC1` (as salt: HCl), the melting point turned out to be 234 °C.
With `CCCN1CCN(c2ccc(F)c(C(F)(F)F)c2)CC1` (as salt: HCl), the melting point is 238 °C.
The molecule `CCCN1CCN(c2cc(F)cc(C(F)(F)F)c2)CC1` (as salt: HCl) gave a melting point of 242 °C.
Regarding `CCCN1CCC(c2ccc(Cl)c(C(F)(F)F)c2)CC1` (as salt: HCl) [Example 9, 4-(4-Chloro-3-trifluoromethyl-phenyl)-1-propyl-piperidine], the melting point fell in the range of 218 to 220 °C.
On the same count and under the same terms, with `CCCN1CCN(c2ccc(Cl)c([N+](=O)[O-])c2)CC1` (as salt: HCl) [Example 19, 1-(4-Chloro-3-nitro-phenyl)-4-propyl-piperazine] the figure was 249 °C; with `CCCN1[C@H](C)CN(c2ccc(Cl)c(C(F)(F)F)c2)C[C@@H]1C` (as salt: HCl) [Example 33, cis-4-(4-Chloro-3-trifluoromethyl-phenyl)-2,6-dimethyl-1-propyl-piperazine], 256 °C.
As for `CCCN1[C@H](C)CN(c2ccc(F)c(C(F)(F)F)c2)C[C@@H]1C` (as salt: HCl) [Example 34, cis-4-(4-Fluoro-3-trifluoromethyl-phenyl)-2,6-dimethyl-1-propyl-piperazine], the melting point turned out to be 221 °C.
`CCCN1[C@H](C)CN(c2ccc(Cl)c(Cl)c2)C[C@@H]1C` (as salt: HCl) [Example 35, cis-4-(3,4-dichloro-phenyl)-2,6-dimethyl-1-propyl-piperazine] showed a melting point of 225 °C.
In turn, `CCCN1CCC(c2ccc(F)c(C(F)(F)F)c2)CC1` (as salt: HCl) [Example 43, 4-(4-Fluoro-3-trifluoromethylphenyl)-1-propyl-piperidine] returned a melting point of 195 to 197 °C.
On to `CCCN1CCC(c2cc(F)cc(C(F)(F)F)c2)CC1` (as salt: HCl) [Example 44, 4-(3-Fluoro-5-trifluoromethylphenyl)-1-propyl-piperidine], for which the melting point is 215 °C.
For `CCCN1CCN(c2cccc(C(F)(F)F)c2)CC1` [1-propyl-4-(3-trifluoromethyl-phenyl)-piperazine, reference compound], in data set [1] (50 μmol/kg s.c.), the “3,4-dihydroxyphenyl-acetic acid in the striatum” value (“3,4-dihydroxyphenyl-acetic acid” for short) was 3358±162 ng/g tissue. Further, in data set [2], the “oral availability (F)” value was 9,5%. Also, the “behavioral inhibition (locomotor activity)” value in data set [3] (50 μmol/kg s.c., n=4) was found to be 271±137 cm/60 min.
Regarding `CCCN1CCC(c2ccc(Cl)c(C(F)(F)F)c2)CC1` [Example 9, 4-(4-Chloro-3-trifluoromethyl-phenyl)-1-propyl-piperidine], the “3,4-dihydroxyphenyl-acetic acid” value in data set [1] (50 μmol/kg s.c.) is recorded as 1680±136 ng/g tissue. For the same molecule, the “oral availability (F)” value in data set [2] is 55%. Further, the d-amphetamine induced hyperactivity in data set [4] (50 μmol/kg s.c.) was determined as 3399±1247 cm/30 min. In addition, the “locomotor activity of habituated rats” value in data set [5] (habituated rats, 50 μmol/kg s.c.) worked out at 1300±761 cm/60 min. Further, the “spontaneous behavior (distance traveled)” value in data set [3] (50 μmol/kg s.c.) stood at 944±114 cm/30 min.
For `CCCN1CCN(c2ccc(Cl)c([N+](=O)[O-])c2)CC1` [Example 19, 1-(4-Chloro-3-nitro-phenyl)-4-propyl-piperazine], in data set [1] (100 μmol/kg s.c.), the “3,4-dihydroxyphenyl-acetic acid” value came out at 1693±104 ng/g tissue. Further, the d-amphetamine induced hyperactivity in data set [4] (100 μmol/kg s.c.) stood at 3767±2332 cm/60 min. Also, the “locomotor activity in nonpretreated rats” value in data set [3] (n=4) turned out to be 266±89 cm/30 min.
Regarding `CCCN1[C@H](C)CN(c2ccc(F)c(C(F)(F)F)c2)C[C@@H]1C` [Example 34, cis-4-(4-Fluoro-3-trifluoromethyl-phenyl)-2,6-dimethyl-1-propyl-piperazine], in data set [1] (33 μmol/kg s.c.), the “3,4-dihydroxyphenyl-acetic acid” value worked out at 1278±143 ng/g tissue. Further, the “spontaneous behavior in the habituated rat” value in data set [5] (habituated rat, 33 μmol/kg s.c., n=4) was 919±143 cm/60 min.
For the molecule `CCCN1[C@H](C)CN(c2ccc(Cl)c(Cl)c2)C[C@@H]1C` [Example 35, cis-4-(3,4-dichloro-phenyl)-2,6-dimethyl-1-propyl-piperazine], the d-amphetamine induced hyperactivity in data set [4] (100 μmol/kg s.c.) is on record as 6514±3374 cm/60 min.
For the molecule `CCCN1CCC(c2ccc(F)c(C(F)(F)F)c2)CC1` [Example 43, 4-(4-Fluoro-3-trifluoromethylphenyl)-1-propyl-piperidine], the “3,4-dihydroxyphenyl-acetic acid” value in data set [1] (100 μmol/kg s.c.) is 1895±100 ng/g tissue. The “locomotor activity in nonpretreated rats” value in data set [3] (n=4) was 540±128 cm/30 min.
